# Reference: patent US9060991B2, “Use of GLP-1 analogues for the treatment of disorders associated with dysfunctional synaptic transmission” (Innovation Ulster Limited, priority 2007, dated 2015)
# Where no end group is shown, it is not given here.
# What was measured:
# Assay type in all cases: in vivo, Male Wistar rats
# [1] = test system: long-term potentiation of synaptic transmission (EPSP slope, CA1 region of hippocampus); experiment: LTP in hippocampal CA1 after icv GLP-1 peptides, weak HFS protocol; details: 15 nmol in 5 μl icv, LTP induced 30 min post-injection (time not given for FIG. 3A)
# Text: (§1) Male Wistar rats weighing 220-280 g were anaesthetised with urethane (ethyl carbamate, 1.8 g/kg, intraperitoneal, (i.p.)) for the duration of all experiments. The animals had been obtained from Harlan, United Kingdom (UK). A cannula (22 gauge, 0.7 mm outer diameter, 11 mm in length, Bilaney, Kent, UK) was implanted (1.5 mm anterior to bregma, 0.5 mm lateral to the midline and 3.55 mm ventral) into the left hemisphere for intracerebroventricular (icv) injections. Electrodes (tungsten with Teflon® coating, Bilaney, Kent, UK) were implanted unilaterally 3.4 mm posterior and 2.5 mm lateral to the midline, and the stimulating electrode 4.2 mm posterior to bregma and 3.8 mm lateral to the midline. […] Recordings of EPSPs were made from the stratum radiatum in the CA1 region of the right hippocampal hemisphere in response to stimulation of the Schaffer collateral/commissural pathway. Field EPSPs were recorded on a computerised stimulating and recording unit (PowerLab, ADI instruments, UK) in which the trigger threshold was adjustable. The triggered unit activated a constant current stimulus isolation unit (Neurolog, UK). The data acquisition system was triggered simultaneously to record all events. Sampling speed was at 20 kHz recording of EPSPs.
# (§2) The ‘strong’ high frequency stimulation (HFS) protocol for inducing long-term potentiation (LTP) consisted of 3 trains of 200 stimuli, inter-stimulus interval 5 ms (200 Hz), inter-train interval 2 sec. […] The ‘weak’ HFS protocol for inducing LTP consisted of 10 trains of 10 stimuli, inter-stimulus interval 5 ms (200 Hz). The strong HFS was used to test the effects of peptides that impair LTP (beta-amyloid), and the weak HFS was used to test peptides that facilitate LTP. In this form of LTP, the control group is not potentiated at a maximal rate, and LTP can decay slowly over time. Stimulation intensity was 70% of the maximum EPSP. LTP was measured as % of baseline EPSP slope recorded over a 30 min period prior to drug injection and 60 min prior to application of HFS. Baseline was recorded for 30 min and averaged. This value was taken as 100% of the EPSP slope and all recoded values were normalised to this baseline value. All experiments were licensed according to UK Home Office regulations, and the “Principles of laboratory animal care” (NIH publication No. 86-23, revised 1985) were followed.
# Beta-amyoid (25-35) and other peptides used in this study were synthesised on an Applied Biosystems automated peptides synthesiser (Model 432A) using standard solid-phase Fmoc protocols. Peptides were judged pure by reversed phase HPLC on a waters Millenium 2010 chromatography system, and peptides were subsequently characterised using matrix-assisted laser desorption/ionisation time of flight (MALDI-TOF) mass spectrometry as described previously (Gengler et al., 2006; Hölscher et al., 2007). Peptides were stored in dry form and dissolved in double distilled water before the experiments. 5 μl of peptides solution was injected icv.
# (§3) Each group consisted of 6 animals. Data were analysed using a repeated measures two-way ANOVA, or a repeated measures three level two-way ANOVA with post-hoc tests to discriminate between groups (PRISM, GraphPad software Inc; USA). […]
# Male Wistar rats were icv injected with either vehicle (Control,) or 15 nmol Val(8)GLP-1 (♦). LTP was induced 30 min post-injection using the HFS (weak protocol), and the change in EPSP assessed and graphed to represent the change in LTP (FIG. 3B). […]
# [2] = test system: long-term potentiation of synaptic transmission (EPSP slope, CA1 region of hippocampus); experiment: Val(8)GLP-1 against beta-amyloid(25-35)-induced impairment of LTP; details: for impairing effect of beta-amyloid on LTP: LTP induced 15 min post-βA injection
# Text: as §1, §2
# Beta-amyoid (25-35) and other peptides used in this study were synthesised on an Applied Biosystems automated peptides synthesiser (Model 432A) using standard solid-phase Fmoc protocols. […]
# as §3
# [3] = test system: long-term potentiation of synaptic transmission (EPSP slope, CA1 region of hippocampus); experiment: LTP in hippocampal CA1 after icv beta-amyloid(25-35), strong HFS protocol; details: LTP induced 15 min post-injection, control = scrambled peptide
# Text: Male Wistar rats weighing 220-280 g were anaesthetised with urethane (ethyl carbamate, 1.8 g/kg, intraperitoneal, (i.p.)) for the duration of all experiments. The animals had been obtained from Harlan, United Kingdom (UK). A cannula (22 gauge, 0.7 mm outer diameter, 11 mm in length, Bilaney, Kent, UK) was implanted (1.5 mm anterior to bregma, 0.5 mm lateral to the midline and 3.55 mm ventral) into the left hemisphere for intracerebroventricular (icv) injections. Electrodes (tungsten with Teflon® coating, Bilaney, Kent, UK) were implanted unilaterally 3.4 mm posterior and 2.5 mm lateral to the midline, and the stimulating electrode 4.2 mm posterior to bregma and 3.8 mm lateral to the midline. […] Field EPSPs were recorded on a computerised stimulating and recording unit (PowerLab, ADI instruments, UK) in which the trigger threshold was adjustable. […]
# The ‘strong’ high frequency stimulation (HFS) protocol for inducing long-term potentiation (LTP) consisted of 3 trains of 200 stimuli, inter-stimulus interval 5 ms (200 Hz), inter-train interval 2 sec. […] LTP was measured as % of baseline EPSP slope recorded over a 30 min period prior to drug injection and 60 min prior to application of HFS. Baseline was recorded for 30 min and averaged. […]
# LTP was induced 15 min post-injection using the HFS (strong protocol), and the change in EPSP assessed and graphed to represent the change in LTP (FIG. 2). […]
substance,measurement,setting,value
"Pro(9)GLP-1: analogue of human GLP-1 with Pro at position 9, SEQ ID NO: 5 (HAPGTFTSDVSSYLEGQAAKEFIAWLVKGR; Synthetic peptide analogue derived from human GLP-1)",effect on LTP (change in EPSP) versus control,[1],enhanced long-term potentiation (LTP) compared with control
GLP-1(7-36)amide: the natural hormone GLP-1(7-36)amide (HAEGTFTSDVSSYLEGQAAKEFIAWLVKGR-NH2; listed as Homo sapiens) [reference compound],effect on LTP (change in EPSP) versus control,[1],difference between the GLP-1(7-36)amide group and control
GLP-1(9-36)amide [reference compound],effect on LTP (change in EPSP) versus control,[1],no difference between the GLP-1(9-36)amide group and the control group
"Val(8)GLP-1: analogue of human GLP-1 with Val at position 8, SEQ ID NO: 4",impairing effect of beta-amyloid on LTP,[2]; Val(8)GLP-1 15 nmol icv 15 min before beta-amyloid(25-35) 100 nmol icv,"not significantly affected, but a trend became visible"
same,impairing effect of beta-amyloid on LTP,[2]; Val(8)GLP-1 15 nmol icv 30 min before beta-amyloid(25-35) 100 nmol icv,completely reversed
same,impairing effect of beta-amyloid on LTP,[2]; Val(8)GLP-1 15 nmol icv simultaneously with beta-amyloid(25-35) 100 nmol icv,not affected
same,effect on LTP (change in EPSP) versus control,[1],can enhance the induction of LTP
"Asp(7)GLP-1: analogue of human GLP-1 with Asp at position 7, SEQ ID NO: 3 (DAEGTFTSDVSSYLEGQAAKEFIAWLVKGR; Synthetic peptide analogue derived from human GLP-1)",effect on LTP (change in EPSP) versus control,[1],enhanced long-term potentiation (LTP) compared with control
"βA(25-35): beta-amyloid fragment 25-35, peptide that impairs LTP (GSNKGAIIGLM; Amyloid-beta protein 42; UniProt P05067 696-706, looked up, fragment)",effect on LTP (change in EPSP) versus vehicle control,"[2]; beta-amyloid(25-35) alone, 100 nmol icv, LTP induced 15 min post-injection, FIG. 4A-4C experiments",difference between the beta-amyloid(25-35) group and control
same,effect on LTP (change in EPSP) versus control,[3]; 10 nmol icv,difference between the 10 nmol group and control
same,effect on LTP (change in EPSP) versus control,[3]; 100 nmol icv,difference between the 100 nmol group and control
